# pIC50: −log10 of the molar value.
# What was measured:
# [1] = tested on: pS6RP in PC3 tumor; assay: In vivo PK/PD study, PC3 tumor bearing mice, pS6RP; conditions: Mus musculus, 50 mg/kg po, at 3 and 8 hours
# Experimental: PC3 cells were cultured at 37° C. in a 5% CO2 incubator using Hams F12 K medium. Ten million (10^7) cells were injected subcutaneously to the right flank region of athymic male mice (Harlan, age: 6-7 weeks, weight: about 20 g). Tumor bearing mice were randomized when the tumor volume reached about 250 mm^3 and three mice were used per each time point. Test compounds of formula (I) were formulated in 40% HPCD in 1×PBS, pH 7.4 and dosed orally at 50 mg/kg single dose (dose volume−10 mL/kg). Plasma and tumor samples were collected at 0 (vehicle control animals), 1, 4 and 24 hours post dosing. Blood was drawn (retro orbital) to a tube containing 0.2% EDTA for plasma collection. The tumor was excised from the mouse and immediately frozen in liquid nitrogen for PD analysis. Tumor and plasma drug concentrations were measured for PK analysis using LC-MS.
# Snap frozen tumor samples were pulverized in a mortar (Belart) containing liquid nitrogen and tumor powder was stored at −80° C. until analysis. Pre coated ELISA kits (Cell Signaling Technology; pAKT(T308), CST#7135; pAKT(5473), CST#7134 and pS6RP, CST#7205) were used for PD analysis. Tumor powder was transferred to Eppendorf® tubes and lysis buffer (1 mL) was added to the powder. Protease and phosphatase inhibitors (SIGMA) and phenylmethanesulfonylfluoride (PMSF) were added to tumor powder and mixed by vortexing followed by sonication (15 sec). Samples were kept on an ice bath for 30 min. Supernatant was separated after centrifugation at 10,000 rpm for 20 min at 4° C. Supernatant was re-centrifuged and fresh supernatant was aliquoted to different tubes. Total protein was estimated using a BCA kit (Thermo Scientific) and 50 μg total protein was loaded to each well. ELISA analysis was carried out as per manufacturer's instructions. The detection for pAKT was based on chemiluminescence and pS6RP was based on absorbance. Qualitative assessments of the suppression of pAKT(T308), pAKT(5473), and pS6RP were also carried out by standard Western blot analyses.
# For example, the compound of Example 1, at 50 mg/kg po, caused about 50% inhibition of pAkt(5473) at 1 and 4 hours and >50% inhibition of pS6RP at 1, 4 and 24 hours. Also, the compound of Example 2, at 50 mg/kg po, caused about 25-30% inhibition of pAkt(5473) at 4 and 24 hours and >50% inhibition of pS6RP at 1, 4 and 24 hours. The compound of example 51, at 30 mg/kg po, caused >50% inhibition of pS6RP at 2, 4 and 24 hours. Also, the compounds of examples 133, 146, 147, and 228, at 50 mg/kg po, each caused >50% inhibition of pS6RP at 3 and 8 hours.
# [2] = biological target: T1, PI3Kα (wild-type), P110/P85α (Homo sapiens, UniProt P42336); assay: PI3 Kinase TR-FRET assay, PI3Kα (wild-type); assay type: biochemical
# T1 construct: made in house; host or cells: SF9 insect cells
# T1 sequence (P42336 whole entry): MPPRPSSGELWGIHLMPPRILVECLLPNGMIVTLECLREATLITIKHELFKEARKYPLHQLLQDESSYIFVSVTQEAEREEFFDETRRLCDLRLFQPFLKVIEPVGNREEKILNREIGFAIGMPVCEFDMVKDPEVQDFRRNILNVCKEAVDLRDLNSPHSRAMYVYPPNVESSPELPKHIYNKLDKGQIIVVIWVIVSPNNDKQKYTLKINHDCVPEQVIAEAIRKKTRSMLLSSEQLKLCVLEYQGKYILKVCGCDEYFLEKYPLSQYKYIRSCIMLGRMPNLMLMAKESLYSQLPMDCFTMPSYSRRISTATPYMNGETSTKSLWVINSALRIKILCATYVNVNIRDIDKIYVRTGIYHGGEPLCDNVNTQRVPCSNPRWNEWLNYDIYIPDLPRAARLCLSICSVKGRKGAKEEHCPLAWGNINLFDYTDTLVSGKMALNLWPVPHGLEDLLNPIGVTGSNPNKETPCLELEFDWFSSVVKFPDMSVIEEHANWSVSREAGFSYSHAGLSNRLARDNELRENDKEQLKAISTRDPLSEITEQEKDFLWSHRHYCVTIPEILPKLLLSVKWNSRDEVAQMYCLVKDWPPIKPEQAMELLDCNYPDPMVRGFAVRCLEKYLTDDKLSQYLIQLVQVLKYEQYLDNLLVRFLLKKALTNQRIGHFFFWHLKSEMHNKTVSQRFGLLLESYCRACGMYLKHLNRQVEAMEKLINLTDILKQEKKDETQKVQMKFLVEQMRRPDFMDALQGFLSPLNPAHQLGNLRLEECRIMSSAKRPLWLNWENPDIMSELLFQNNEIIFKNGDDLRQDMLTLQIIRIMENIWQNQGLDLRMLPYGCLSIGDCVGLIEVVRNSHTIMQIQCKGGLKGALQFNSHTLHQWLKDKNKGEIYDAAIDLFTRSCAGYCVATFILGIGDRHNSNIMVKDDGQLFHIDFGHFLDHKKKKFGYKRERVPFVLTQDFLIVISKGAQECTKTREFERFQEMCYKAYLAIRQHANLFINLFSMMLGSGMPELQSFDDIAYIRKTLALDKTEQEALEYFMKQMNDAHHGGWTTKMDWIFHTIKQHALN
# T1 sequence (P27986 whole entry partner): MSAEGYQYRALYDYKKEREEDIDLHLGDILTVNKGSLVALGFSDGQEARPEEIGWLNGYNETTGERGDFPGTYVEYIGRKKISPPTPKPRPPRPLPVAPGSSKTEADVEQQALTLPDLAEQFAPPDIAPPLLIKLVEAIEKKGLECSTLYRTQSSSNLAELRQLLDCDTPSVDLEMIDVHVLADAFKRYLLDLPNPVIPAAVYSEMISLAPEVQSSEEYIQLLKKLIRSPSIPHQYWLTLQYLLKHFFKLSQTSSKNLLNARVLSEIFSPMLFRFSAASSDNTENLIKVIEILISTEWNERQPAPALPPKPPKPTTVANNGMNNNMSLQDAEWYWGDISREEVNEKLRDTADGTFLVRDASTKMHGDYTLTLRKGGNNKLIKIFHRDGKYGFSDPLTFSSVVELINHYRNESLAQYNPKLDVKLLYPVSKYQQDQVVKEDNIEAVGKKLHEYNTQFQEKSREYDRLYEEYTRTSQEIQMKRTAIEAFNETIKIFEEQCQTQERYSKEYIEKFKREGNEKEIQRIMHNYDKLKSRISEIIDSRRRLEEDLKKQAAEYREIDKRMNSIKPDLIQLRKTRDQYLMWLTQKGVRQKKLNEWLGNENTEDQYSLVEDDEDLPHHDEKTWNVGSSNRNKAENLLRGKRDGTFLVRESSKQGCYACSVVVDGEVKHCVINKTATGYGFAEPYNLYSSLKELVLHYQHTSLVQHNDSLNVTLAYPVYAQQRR
# Procedure, shortened: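 Sf9-expressed His-purified P110/P85α (5 ng) preincubated 60 min RT with compound and PIP2 in buffer with 40 mM MgCl2, 5 mM DTT; reaction started with ATP (PIP2 and ATP both 10 μM), 30 min RT. PIP3 detected by TR-FRET displacement, 665/615 nm ratio; IC50 from dose-response curves.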
# [3] = biological target: T2, mTOR kinase (Homo sapiens, UniProt P42345); assay: mTOR kinase TR-FRET assay; assay type: biochemical; conditions: read-out: mTO R
# T2 construct: purchased Millipore, USA
# Procedure, shortened: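 Compounds preincubated 60 min with mTOR (5 ng) in HEPES pH 7.5, EGTA, MnCl2; ULight-p70 S6K Thr389 peptide (50 nM) and ATP (20 μM) then added, 60 min at room temperature. EDTA-stopped, Eu-anti-phospho antibody detection by TR-FRET (665/615 nm); IC50 from variable-slope sigmoidal fit.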
# [4] = tested on: pAKT(5473) (phosphorylated at serine 473), PC3 cells; assay: In-cell Western assay, pAKT(5473) in PC3 cells; assay type: cell-based; conditions: Homo sapiens, PC-3, In-cell Western, read-out: pAkt-S473
# Experimental: (§1) Cells from human prostate cancer cell line PC3 (American Type Culture Collection (ATCC), Manassas, Va. 20108 USA) were seeded at an optimal density of 22,000 cell/well in 96-well plates containing Ham's F12K medium (90 μL) and incubated overnight. The compound dilutions were carried out in 100% DMSO followed by a dilution in the medium. Test compounds were added in serial dilutions to the wells and incubated for 2 h. The cells were washed and fixed with 4% paraformaldehyde. After incubation at room temperature for 1 h in the dark, blocking was done for 2 h at room temperature. Primary antibodies for phosphorylated (p) AKT(5473) (phosphorylated at serine 473), pAKT(T308) (phosphorylated at threonine 308) and for pS6RP(S235/236) (phosphorylated at serine 235/236) (commercially available from Cell Signaling Technology®, whose protocol was followed for the in-cell western assay, were diluted to the required concentration and added to the corresponding wells followed by overnight incubation at 4° C. Eu-labeled rabbit (PE) (Perkin-Elmer USA catalog #AD0106) secondary antibody was added and incubated for 2 h at room temperature. Delfia® enhancement solution (cat #1244-105, Perkin Elmer USA) was subsequently added to the plate before taking the reading at 615 nm with excitation wavelength of 340 nm, after which 0.5 μg/mL of Hoechst® 33258 dye (Catalog #86140-5, Sigma) was added to the plate and fluorescence emission was read at 460 nm with 355 nm excitation, to evaluate the correction factor. IC50 values were calculated using a sigmoidal dose-response curve fit in GraphPad Prism® v5 software.
# [5] = biological target: PI3 kinase isoform δ (Homo sapiens, UniProt O00329); assay: PI3 Kinase TR-FRET assay, isoform δ; assay type: biochemical; conditions: read-out: inhibition of PI3 kinase isoform δ, IC50
# Sequence of PI3 kinase isoform δ (O00329 whole entry, the tested form may be a part, canonical isoform): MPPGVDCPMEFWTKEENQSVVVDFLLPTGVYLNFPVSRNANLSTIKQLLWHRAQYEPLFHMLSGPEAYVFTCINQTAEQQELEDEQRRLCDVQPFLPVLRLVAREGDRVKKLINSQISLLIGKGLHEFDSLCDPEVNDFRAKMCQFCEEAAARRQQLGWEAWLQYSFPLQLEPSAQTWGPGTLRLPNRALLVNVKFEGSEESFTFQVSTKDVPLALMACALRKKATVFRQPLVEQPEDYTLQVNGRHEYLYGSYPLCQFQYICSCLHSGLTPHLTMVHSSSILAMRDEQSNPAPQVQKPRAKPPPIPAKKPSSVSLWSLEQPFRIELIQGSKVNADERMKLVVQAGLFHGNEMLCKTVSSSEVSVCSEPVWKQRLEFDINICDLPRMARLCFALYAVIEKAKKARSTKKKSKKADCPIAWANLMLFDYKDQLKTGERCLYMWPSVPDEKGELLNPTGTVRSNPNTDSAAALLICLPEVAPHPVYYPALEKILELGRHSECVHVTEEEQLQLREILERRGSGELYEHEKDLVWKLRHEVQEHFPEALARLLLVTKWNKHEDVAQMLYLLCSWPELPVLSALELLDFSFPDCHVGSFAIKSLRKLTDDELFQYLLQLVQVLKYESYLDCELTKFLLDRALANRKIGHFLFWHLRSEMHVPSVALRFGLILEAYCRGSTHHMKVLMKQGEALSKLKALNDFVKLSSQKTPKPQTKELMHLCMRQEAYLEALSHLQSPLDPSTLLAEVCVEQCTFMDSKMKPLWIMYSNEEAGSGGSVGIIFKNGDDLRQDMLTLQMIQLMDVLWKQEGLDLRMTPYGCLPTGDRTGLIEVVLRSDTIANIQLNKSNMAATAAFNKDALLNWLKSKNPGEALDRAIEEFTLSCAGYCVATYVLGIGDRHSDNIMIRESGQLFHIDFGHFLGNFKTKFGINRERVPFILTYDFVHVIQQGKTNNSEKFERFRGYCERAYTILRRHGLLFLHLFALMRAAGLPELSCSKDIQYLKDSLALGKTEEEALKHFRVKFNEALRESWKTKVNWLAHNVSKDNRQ
# Sequence of PI3 kinase isoform δ (P27986 whole entry partner, the tested form may be a part, canonical isoform): as the sequence (P27986 whole entry partner) above
# Experimental: The ability of compounds of the invention to inhibit PI3K activity was determined in a homogeneous TR-FRET assay using a PI3K assay kit (Millipore, USA; cat #33-016) according to manufacturer's instructions. PI3-Kinases (isoforms α, β, γ and δ) catalyze the phosphorylation of phosphatidylinositol, PIP2 to PIP3 in the presence of ATP and Mg^2+. The PIP3 product is detected by displacement of biotin-PIP3 from an energy transfer complex consisting of Europium labeled anti-GST monoclonal antibody, a GST-tagged PH domain, biotinylated PIP3 and Streptavidin-APC. Excitation of Europium in the complex results in an energy transfer to the APC and a fluorescence emission at 665 nm. The PIP3 product displaces biotin-PIP3 from the complex resulting in a loss of energy transfer and thus a decrease in signal.
# To test for the ability of compounds to inhibit the activity of PI3Kα (wild-type), exemplary compounds of formula (I) were dissolved in DMSO and directly distributed into 384-well plates at a volume of 0.5 μL. 14.5 μL of P110/P85α/PIP2 mixture in buffer (obtained from the Millipore kit) containing MgCl2 (40 mM) and DTT (5 mM) was added to compound wells and incubated for 60 min at room temperature. P110/P85α was expressed in SF9 insect cells and purified nickel column extraction. Five ng of wild-type P110/P85α was used in the assay. The kinase reaction was started by the addition of ATP. The assay concentrations of both PIP2 and ATP were 10 μM. The reaction mixture was incubated for 30 min at room temperature and was terminated by the addition of stop mix and detection mix. Fluorescence was measured at 615 and 665 nm upon excitation at 340 nm in a Victor™ V5 fluorometer (Perkin Elmer, USA). The fluorescence emission ratio at 665 to 615 nm, proportional to the kinase activity, was plotted against the compound concentration to generate dose-response curves and IC50 values were determined using GraphPad Prism® 5 software.
# The activity of PI3 kinase isoforms β, γ and δ were assayed in a similar manner to the assay protocol described above for PI3Kα, by substituting the appropriate p110/p85 isoform for the p110α/p85α. Compounds of formula (I) caused inhibition of PI3 kinase isoforms β, γ and δ as determined by these assays. For example, the compounds of examples 3, 51, 54, 111, 113, 115, and 253 each caused inhibition of PI3 kinase isoform β with IC50 values <50 nM. The compounds of examples 104, 133, 146 and 152 each caused inhibition of PI3 kinase isoform β with IC50 values <500 nM. The compounds of examples 3, 51, 54, 104, 111, 113, 115, 133, 253, and 152 each caused inhibition of PI3 kinase isoform γ with IC50 values <500 nM. […] The compounds of examples 2, 3, 51, 54, 111, 113, and 253 each caused inhibition of PI3 kinase isoform […] with IC50 values >1 μM.
# [6] = tested on: PC3 cells; assay: XTT assay for cell viability, PC3 cells; assay type: cell-based, human; conditions: Homo sapiens, PC-3, cell viability
# Procedure, shortened: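 PC3 cells seeded at 1000 cells/well, grown 24 h, then exposed to serial dilutions of compound for 96 h. Viability read by XTT dye at 37° C, absorbance 465 nm. EC50 from sigmoidal dose-response fit.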
# [7] = tested on: pAKT(T308) (phosphorylated at threonine 308), PC3 cells; assay: In-cell Western assay, pAKT(T308) in PC3 cells; assay type: cell-based; conditions: Homo sapiens, PC-3, In-cell Western
# Experimental: as §1
# [8] = tested on: pS6RP(S235/236), PC3 cells; assay: In-cell Western assay, pS6RP(S235/236) in PC3 cells; assay type: cell-based, human; conditions: Homo sapiens, PC-3, In-cell Western
# Procedure, shortened: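 Overnight-seeded PC3 cells were treated 2 h with serially diluted compound, then fixed and immunostained with phospho-specific primary antibodies and Eu-labelled secondary. Time-resolved Eu signal read at 615 nm (ex 340 nm), normalised by Hoechst 33258 staining (ex 355/em 460 nm); IC50 from sigmoidal dose-response fit.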
pIC50 [2],pIC50 [3],pIC50 [4],pIC50 [5],pIC50 [6],pIC50 [7],pIC50 [8],SMILES,inhibition at 50 mg/kg [1]
> 7.30,> 7.30,5.30 to 6.30,–,–,–,–,"CN(C)C(=O)c1ccc(NC(=O)Nc2ccc(-c3nc(N4CCOCC4)c4ccc(-c5ccc(CO)o5)cc4n3)cc2)c(F)c1 [Example 228, 3-fluoro-4-(3-(4-(7-(5-(hydroxymethyl)furan-2-yl)-4-morpholino-quinazolin-2-yl)phenyl)ureido)-N,N-dimethyl-benzamide]",> 50%
> 7.30,6.70 to 7.30,–,< 6.00,6.30 to 7.00,–,–,"CN(C)C(=O)c1ccc(NC(=O)Nc2ccc(-c3nc(N4CCOCC4)c4ccc(-c5cccnc5F)cc4n3)cn2)cc1 [Example 54, 4-(3-{5-[7-(2-fluoro-pyridin-3-yl)-4-morpholin-4-yl-quinazolin-2-yl]-pyridin-2-yl}-ureido)-N,N-dimethyl-benzamide]",–
6.70 to 7.30,> 7.30,> 7.00,–,–,5.00 to 6.70,–,"COc1ncc(-c2ccc3c(N4CCOCC4)nc(-c4ccc(NC(=O)Nc5ccc(C(=O)N(C)C)cc5F)cc4)nc3c2)cn1 [Example 147, 3-fluoro-4-(3-(4-(7-(2-methoxypyrimidin-5-yl)-4-morpholino-quinazolin-2-yl)phenyl)ureido)-N,N-dimethyl-benzamide]",> 50%
> 7.30,> 7.30,6.30 to 7.00,–,> 7.00,6.30 to 7.00,> 7.00,"CN(C)C(=O)c1ccc(NC(=O)Nc2ccc(-c3nc(N4CCOCC4)c4ccc(-c5cccc(S(C)(=O)=O)c5)cc4n3)cc2)cc1 [Example 19, 4-(3-{4-[7-(3-methanesulfonyl-phenyl)-4-morpholin-4-yl-quinazolin-2-yl]-phenyl}-ureido)-N,N-dimethyl-benzamide]",–
> 7.30,6.70 to 7.30,> 7.00,< 6.00,5.00 to 6.70,–,> 7.00,"CN(C)C(=O)c1ccc(NC(=O)Nc2ccc(-c3nc(N4CCOCC4)c4cc(F)c(-c5cnn(C)c5)cc4n3)cn2)cc1 [Example 113, 4-(3-(5-(6-fluoro-7-(1-methyl-1H-pyrazol-4-yl)-4-morpholino-quinazolin-2-yl)pyridin-2-yl)ureido)-N,N-dimethyl-benzamide]",–
> 7.30,6.70 to 7.30,–,< 6.00,6.30 to 7.00,–,–,CN(C)C(=O)c1ccc(NC(=O)Nc2ccc(-c3nc(N4CCOCC4)c4ccc(-c5cccc(S(C)(=O)=O)c5)cc4n3)cn2)cc1 [Example 3],–
> 7.30,> 7.30,5.00 to 6.70,< 6.00,5.00 to 6.70,–,5.00 to 6.70,"CN(C)C(=O)c1ccc(NC(=O)Nc2ccc(-c3nc(N4CCOCC4)c4ncc(-c5cccnc5F)cc4n3)cn2)cc1 [Example 111, 4-(3-(5-(7-(2-fluoropyridin-3-yl)-4-morpholino-pyrido[3,2-d]pyrimidin-2-yl)pyridin-2-yl)ureido)-N,N-dimethyl-benzamide]",–
> 7.30,5.00 to 6.70,> 7.00,< 6.00,–,–,–,"CN(C)C(=O)c1ccc(NC(=O)Nc2ccc(-c3nc(N4CCOCC4)c4ccc(-c5cccc(S(C)(=O)=O)c5)cc4n3)cn2)cc1F [Example 253, 2-fluoro-N,N-dimethyl-4-(3-(5-(7-(3-(methylsulfonyl)phenyl)-4-morpholino-quinazolin-2-yl)pyridin-2-yl)ureido)-benzamide]",–

# Reference: US9115092B2, “Substituted quinazoline and pyrido-pyrimidine derivatives” (Asana Biosciences, LLC, priority 2010, dated 2015)
